Experimental data as given in patent US11000033B2, “Ketone or oxime compound, and herbicide” (NISSAN CHEMICAL CORPORATION, priority 2014, dated 2021).

Columns and labels:
Format in all cases: in vivo
[1] = test system: Echinochloa oryzacola Vasing.; assay: Test Example 1: herbicidal activity, application before weed generation in submerged conditions (symbol A); conditions: application herbicide amount 320 g/ha
How it was run: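 Weeds are sown into submerged alluvial soil alongside transplanted 2.5-leaf rice, and the compound, as an emulsion diluted to a set rate, is applied onto the water before emergence. Rating on the 0–5 herbicidal-ratio scale follows 3 weeks of greenhouse growth at 25–30 °C.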

transplanted rice plant = assay: Test Example 1: effect on crop, application before weed generation in submerged conditions (symbol a); conditions: application herbicide amount 320 g/ha
How it was run: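 Alluvial soil pots flooded to 4 cm water, sown with Echinochloa oryzacola, Scirpus juncoides and Monochoria vaginalis, then transplanted with 2.5 leaf stage rice seedlings; pre-emergence application. Greenhouse 25° C. to 30° C.; scored 0–5 by herbicidal ratio 3 weeks after application.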

Scirpus juncoides = assay: Test Example 2: herbicidal activity, application during weed generation in submerged conditions (symbol B); conditions: Table 23; application herbicide amount 320 g/ha; grade 0-5 by criteria of Test Example 1
How it was run: (§1)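 Paddy pot test, submerged (4 cm water), alluvial soil, mixed sowing; greenhouse 25–30° C. Emulsion formulation diluted to predetermined rate, applied onto floodwater at 1–2 leaf stage. Visual herbicidal rating at 3 wk post-treatment.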

Monochoria vaginalis = assay: Test Example 2: herbicidal activity, application during weed generation in submerged conditions (symbol C); conditions: Table 23; application herbicide amount 320 g/ha; grade 0-5 by criteria of Test Example 1
How it was run: as §1

Cyperus difformis = assay: Test Example 3: herbicidal effect by foliage application, Wagner pot (symbol E); conditions: application herbicide amount 320 g/ha
How it was run: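 Foliar spray of water-diluted emulsion formulation at a predetermined herbicide amount onto 14-day-old plants in flooded alluvial soil (water depth 0.1–0.5 cm), greenhouse 25–30 °C; rice sown alongside. Scored 3 wk post-application on set criteria.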

[2] = test system: directly sowed rice plant; assay: Test Example 3: effect on crop by foliage application, Wagner pot (symbol b); conditions: application herbicide amount 320 g/ha
How it was run: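 Greenhouse culture at 25–30 °C of seeded rice, Cyperus difformis, Leptochloa chinensis and Echinochloa crus-galli var. crus-galli, in alluvial soil held under 0.1–0.5 cm of water in a Wagner pot.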

soybean = assay: Test Example 4: effect on crop by soil treatment (symbol d); conditions: 320 g/ha
How it was run: (§2)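 Crop seeds, among them rice, wheat, beet and rapeseed, were sown in sterilized diluvial soil and covered with about 1.5 cm of soil. Boxes were kept in a greenhouse at 25° C. to 30° C. for plant growth.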

rice = assay: Test Example 4: effect on crop by soil treatment (symbol b); conditions: 320 g/ha
How it was run: as §2

wheat = assay: Test Example 4: effect on crop by soil treatment (symbol e); conditions: 320 g/ha
How it was run: as §2

Avena fatua = assay: Test Example 5: herbicidal effect by foliage application, plastic box (symbol I); conditions: 320 g/ha, 3 weeks after application
How it was run: (§3)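 After sowing into sterilized diluvial soil and growing two weeks under glass at 25° C. to 30° C., seedlings receive a uniform foliar spray of diluted emulsion. Damage is judged visually three weeks on.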

Lolium multiflorum Lam. = assay: Test Example 5: herbicidal effect by foliage application, plastic box (symbol K); conditions: 320 g/ha, 3 weeks after application
How it was run: as §3

Chenopodium album = assay: Test Example 5: herbicidal effect by foliage application, plastic box (symbol O); conditions: 320 g/ha, 3 weeks after application
How it was run: as §3

corn = assay: Test Example 5: effect on crop by foliage application, plastic box (symbol c); conditions: 320 g/ha, 3 weeks after application
How it was run: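 Sterilized diluvial soil, plastic box (21 × 13 × 7 cm); spot sowing, ~1.5 cm soil cover; greenhouse 25–30° C.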

Row | Compound | Herbicidal effect grade, A: Echinochloa oryzacola Vasing. [1] | Effect grade on crop, a: transplanted rice plant (transplanted rice plant) | Herbicidal effect grade, B: Scirpus juncoides (Scirpus juncoides) | Herbicidal effect grade, C: Monochoria vaginalis (Monochoria vaginalis) | herbicidal effect on E, grade 0-5 (Cyperus difformis) | effect on crop b (directly sowed rice plant), grade 0-5 [2] | d: soybean, effect grade on crop (soybean) | b: directly sowed rice plant, effect grade on crop (rice) | e: wheat, effect grade on crop (wheat) | I: Avena fatua, herbicidal effect (criteria 0-5) (Avena fatua) | K: Lolium multiflorum Lam., herbicidal effect (criteria 0-5) (Lolium multiflorum Lam.) | O: Chenopodium album, herbicidal effect (criteria 0-5) (Chenopodium album) | c: corn, effect on crop (criteria 0-5) (corn)
1 | CCCC=CC(=O)OC1=C(c2c(C)cc(C)cc2C)C(=O)C(CC(C)=NOC)C1 (centres unmarked) [1-090] | 5 (Herbicidal ratio of 90% or more (almost completely withered)) | 5 (Herbicidal ratio of 90% or more (almost completely withered)) | 5 (Herbicidal ratio of 90% or more (almost completely withered)) | 3 (Herbicidal ratio of 40% or higher and lower than 70%) | 5 (Herbicidal ratio of 90% or more (almost completely withered)) | 5 (Herbicidal ratio of 90% or more (almost completely withered)) | 0 (Herbicidal ratio of 5% or lower (almost no effect)) | 5 (Herbicidal ratio of 90% or more (almost completely withered)) | 4 (Herbicidal ratio of 70% or higher and lower than 90%) | 5 (Herbicidal ratio of 90% or more (almost completely withered)) | 5 (Herbicidal ratio of 90% or more (almost completely withered)) | 2 (Herbicidal ratio of 20% or higher and lower than 40%) | 5 (Herbicidal ratio of 90% or more (almost completely withered))
2 | CON=C(C)CC1CC(OC(=O)C=Cc2ccco2)=C(c2c(C)cc(C)cc2C)C1=O (centres unmarked) [1-091] | 5 (Herbicidal ratio of 90% or more (almost completely withered)) | 4 (Herbicidal ratio of 70% or higher and lower than 90%) | 3 (Herbicidal ratio of 40% or higher and lower than 70%) | 0 (Herbicidal ratio of 5% or lower (almost no effect)) | 5 (Herbicidal ratio of 90% or more (almost completely withered)) | 5 (Herbicidal ratio of 90% or more (almost completely withered)) | 0 (Herbicidal ratio of 5% or lower (almost no effect)) | 5 (Herbicidal ratio of 90% or more (almost completely withered)) | 4 (Herbicidal ratio of 70% or higher and lower than 90%) | 5 (Herbicidal ratio of 90% or more (almost completely withered)) | 5 (Herbicidal ratio of 90% or more (almost completely withered)) | 0 (Herbicidal ratio of 5% or lower (almost no effect)) | 5 (Herbicidal ratio of 90% or more (almost completely withered))
3 | CON=C(C)CC1CC(OC(=O)COCC(F)(F)F)=C(c2c(C)cc(C)cc2C)C1=O (centres unmarked) [1-092] | 5 (Herbicidal ratio of 90% or more (almost completely withered)) | 5 (Herbicidal ratio of 90% or more (almost completely withered)) | 4 (Herbicidal ratio of 70% or higher and lower than 90%) | 0 (Herbicidal ratio of 5% or lower (almost no effect)) | 5 (Herbicidal ratio of 90% or more (almost completely withered)) | 5 (Herbicidal ratio of 90% or more (almost completely withered)) | 0 (Herbicidal ratio of 5% or lower (almost no effect)) | 5 (Herbicidal ratio of 90% or more (almost completely withered)) | 4 (Herbicidal ratio of 70% or higher and lower than 90%) | 2 (Herbicidal ratio of 20% or higher and lower than 40%) | 5 (Herbicidal ratio of 90% or more (almost completely withered)) | 0 (Herbicidal ratio of 5% or lower (almost no effect)) | 5 (Herbicidal ratio of 90% or more (almost completely withered))
4 | COCC(=O)OC1=C(c2c(C)cc(C)cc2C)C(=O)C(CC(C)=NOC)C1 (centres unmarked) [1-093] | 5 (Herbicidal ratio of 90% or more (almost completely withered)) | 5 (Herbicidal ratio of 90% or more (almost completely withered)) | 5 (Herbicidal ratio of 90% or more (almost completely withered)) | 3 (Herbicidal ratio of 40% or higher and lower than 70%) | 5 (Herbicidal ratio of 90% or more (almost completely withered)) | 5 (Herbicidal ratio of 90% or more (almost completely withered)) | 0 (Herbicidal ratio of 5% or lower (almost no effect)) | 5 (Herbicidal ratio of 90% or more (almost completely withered)) | 4 (Herbicidal ratio of 70% or higher and lower than 90%) | 5 (Herbicidal ratio of 90% or more (almost completely withered)) | 5 (Herbicidal ratio of 90% or more (almost completely withered)) | 0 (Herbicidal ratio of 5% or lower (almost no effect)) | 5 (Herbicidal ratio of 90% or more (almost completely withered))
5 | CON=C(C)CC1CC(OC(=O)COCc2ccccc2)=C(c2c(C)cc(C)cc2C)C1=O (centres unmarked) [1-094] | 5 (Herbicidal ratio of 90% or more (almost completely withered)) | 5 (Herbicidal ratio of 90% or more (almost completely withered)) | 5 (Herbicidal ratio of 90% or more (almost completely withered)) | 4 (Herbicidal ratio of 70% or higher and lower than 90%) | 4 (Herbicidal ratio of 70% or higher and lower than 90%) | 5 (Herbicidal ratio of 90% or more (almost completely withered)) | 1 (Herbicidal ratio of 5% or higher and lower than 20%) | 5 (Herbicidal ratio of 90% or more (almost completely withered)) | 3 (Herbicidal ratio of 40% or higher and lower than 70%) | 5 (Herbicidal ratio of 90% or more (almost completely withered)) | 5 (Herbicidal ratio of 90% or more (almost completely withered)) | 0 (Herbicidal ratio of 5% or lower (almost no effect)) | 5 (Herbicidal ratio of 90% or more (almost completely withered))
